Measured values reported in US10961236B2, “(S)-2-(1-cyclopropylethyl)-5-(4-methyl-2-((6-(2-oxopyrrolidin-1-yl)pyridin-2-yl)amino) thiazol-5-yl)-7-(methylsulfonyl)isoindolin-1-one as a phosphatidylinositol 3-kinase inhibitor” (AstraZeneca AB, priority 2016, dated 2021).

Experiments:
Type in all cases: biochemical
[1] = molecular target: recombinant human PI3Kδ (6-His(p110-p85α)) (Homo sapiens (Human), UniProt O00329); experiment: Enzymatic activity assay for recombinant human PI3Kδ (ADP-Glo); details: 0.6 nM PI3Kδ, 20 μM ATP, 80 μM DiC8-PIP2, ADP-Glo
Description: (§1) Enzymatic Activity Assay for Recombinant Human PI3K α, β, δ and γ.
(§2) The activity of recombinant human PI3Kγ ((aa144-1102)-6His) and PI3Kα, β, δ (6-His(p110-p85α)) was determined by measuring the ADP level after phosphorylation of DiC8-PIP2 using a commercially available ADP-Glo™ kit from Promega. The assay was carried out in white low volume 384 well plates in a final volume of 14 μl at R.T. The assay conditions contained the following: 50 mM Tris buffer pH 7.4, 2.1 mM DTT, 3 mM MgCl2, 0.05% CHAPS, 20 μM ATP, 80 μM DiC8-PIP2 and 1.2 nM PI3Kα, β, γ or 0.6 nM PI3Kδ. […] Routinely, inhibitors were pre-incubated with 3 μl of enzyme for 15 min prior to the addition of 2 μl substrate mixture for a further 60 min enzyme reaction. The phosphorylation was stopped with the addition of 3 μl ADP-Glo™ reagent (stop solution) followed by a 40 min incubation. Prior to detection 6 μl of ADP-Glo™ Kinase Detection Reagent was added and the plates were read in a micro plate reader using a Luminescence filter. All additions were followed by a short centrifugation step.

[2] = molecular target: recombinant human PI3Kγ ((aa144-1102)-6His) (Homo sapiens (Human), UniProt P48736); experiment: Enzymatic activity assay for recombinant human PI3Kγ (ADP-Glo); details: 1.2 nM PI3Kγ, 20 μM ATP, 80 μM DiC8-PIP2, ADP-Glo
Description: as §1, §2

[3] = molecular target: recombinant human PI3Kα (6-His(p110-p85α)) (Homo sapiens (Human), UniProt P42336); experiment: Enzymatic activity assay for recombinant human PI3Kα (ADP-Glo); details: 1.2 nM PI3Kα, 20 μM ATP, 80 μM DiC8-PIP2, ADP-Glo
Description: as §1
as §2, with “PI3Kδ. Potential inhibitors were made up in DMSO and then diluted in the assay to give a final concentration of not exceeding 1% (v/v) DMSO.” for “PI3Kδ.”

[4] = molecular target: recombinant human PI3Kβ (6-His(p110-p85α)) (Homo sapiens (Human), UniProt P42338); experiment: Enzymatic activity assay for recombinant human PI3Kβ (ADP-Glo); details: 1.2 nM PI3Kβ, 20 μM ATP, 80 μM DiC8-PIP2, ADP-Glo
Description: as §1
as §2, with “PI3Kδ. Potential inhibitors were made up in DMSO and then diluted in the assay to give a final concentration of not exceeding 1% (v/v) DMSO.” for “PI3Kδ.”

Chain of recombinant human PI3Kγ ((aa144-1102)-6His) (P48736 144-1102): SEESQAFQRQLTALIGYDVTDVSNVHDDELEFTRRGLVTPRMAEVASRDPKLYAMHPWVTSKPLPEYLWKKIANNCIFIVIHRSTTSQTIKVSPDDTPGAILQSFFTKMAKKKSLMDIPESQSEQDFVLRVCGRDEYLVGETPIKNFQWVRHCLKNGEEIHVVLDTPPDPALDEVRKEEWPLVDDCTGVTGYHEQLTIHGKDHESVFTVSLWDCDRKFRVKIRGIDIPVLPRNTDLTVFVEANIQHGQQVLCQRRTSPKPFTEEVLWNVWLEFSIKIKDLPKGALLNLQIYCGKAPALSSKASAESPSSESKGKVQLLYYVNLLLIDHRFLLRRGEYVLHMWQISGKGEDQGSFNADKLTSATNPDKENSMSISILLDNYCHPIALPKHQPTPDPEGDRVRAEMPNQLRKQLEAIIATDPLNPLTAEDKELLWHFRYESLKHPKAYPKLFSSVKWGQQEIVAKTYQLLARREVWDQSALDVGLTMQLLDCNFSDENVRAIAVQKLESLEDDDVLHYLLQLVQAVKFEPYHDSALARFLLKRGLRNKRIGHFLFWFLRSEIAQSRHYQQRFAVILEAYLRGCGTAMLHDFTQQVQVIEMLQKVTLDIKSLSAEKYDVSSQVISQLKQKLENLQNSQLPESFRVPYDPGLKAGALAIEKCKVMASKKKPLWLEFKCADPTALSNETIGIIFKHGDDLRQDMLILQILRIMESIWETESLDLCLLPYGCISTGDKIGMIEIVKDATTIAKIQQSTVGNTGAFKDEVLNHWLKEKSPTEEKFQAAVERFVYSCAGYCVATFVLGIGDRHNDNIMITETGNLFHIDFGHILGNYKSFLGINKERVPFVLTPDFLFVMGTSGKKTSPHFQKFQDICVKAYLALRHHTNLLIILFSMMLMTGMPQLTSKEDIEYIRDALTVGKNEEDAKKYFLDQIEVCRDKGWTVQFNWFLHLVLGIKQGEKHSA
Chain of recombinant human PI3Kβ (6-His(p110-p85α)) (P42338 whole entry): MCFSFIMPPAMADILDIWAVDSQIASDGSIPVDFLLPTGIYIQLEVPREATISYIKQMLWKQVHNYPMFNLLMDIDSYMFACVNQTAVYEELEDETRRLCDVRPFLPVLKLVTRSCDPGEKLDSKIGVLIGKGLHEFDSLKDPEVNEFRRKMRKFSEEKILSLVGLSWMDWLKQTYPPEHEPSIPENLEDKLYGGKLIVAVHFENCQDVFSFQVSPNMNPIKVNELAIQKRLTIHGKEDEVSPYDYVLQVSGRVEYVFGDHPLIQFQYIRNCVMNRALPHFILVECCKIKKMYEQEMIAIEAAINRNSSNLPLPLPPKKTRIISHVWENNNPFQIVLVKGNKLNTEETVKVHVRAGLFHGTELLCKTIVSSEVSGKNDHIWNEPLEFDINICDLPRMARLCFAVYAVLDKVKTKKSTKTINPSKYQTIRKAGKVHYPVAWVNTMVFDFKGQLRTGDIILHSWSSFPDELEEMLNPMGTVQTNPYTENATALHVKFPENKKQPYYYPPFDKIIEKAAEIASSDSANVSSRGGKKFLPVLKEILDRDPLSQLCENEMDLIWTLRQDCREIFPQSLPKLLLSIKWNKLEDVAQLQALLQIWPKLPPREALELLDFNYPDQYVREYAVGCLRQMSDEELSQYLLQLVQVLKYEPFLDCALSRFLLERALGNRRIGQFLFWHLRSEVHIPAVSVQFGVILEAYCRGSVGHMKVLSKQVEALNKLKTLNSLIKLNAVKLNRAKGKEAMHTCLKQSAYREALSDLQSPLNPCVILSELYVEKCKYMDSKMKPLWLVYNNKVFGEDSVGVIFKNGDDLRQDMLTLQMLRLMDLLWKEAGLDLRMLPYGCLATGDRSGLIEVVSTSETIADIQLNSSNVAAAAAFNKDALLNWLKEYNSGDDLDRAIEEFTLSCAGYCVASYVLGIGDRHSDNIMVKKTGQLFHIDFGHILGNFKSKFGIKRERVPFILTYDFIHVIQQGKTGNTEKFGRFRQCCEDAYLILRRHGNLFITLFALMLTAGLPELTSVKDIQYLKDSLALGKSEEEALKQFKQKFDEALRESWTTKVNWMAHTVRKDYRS
Chain of recombinant human PI3Kβ (6-His(p110-p85α)) (P27986 whole entry partner): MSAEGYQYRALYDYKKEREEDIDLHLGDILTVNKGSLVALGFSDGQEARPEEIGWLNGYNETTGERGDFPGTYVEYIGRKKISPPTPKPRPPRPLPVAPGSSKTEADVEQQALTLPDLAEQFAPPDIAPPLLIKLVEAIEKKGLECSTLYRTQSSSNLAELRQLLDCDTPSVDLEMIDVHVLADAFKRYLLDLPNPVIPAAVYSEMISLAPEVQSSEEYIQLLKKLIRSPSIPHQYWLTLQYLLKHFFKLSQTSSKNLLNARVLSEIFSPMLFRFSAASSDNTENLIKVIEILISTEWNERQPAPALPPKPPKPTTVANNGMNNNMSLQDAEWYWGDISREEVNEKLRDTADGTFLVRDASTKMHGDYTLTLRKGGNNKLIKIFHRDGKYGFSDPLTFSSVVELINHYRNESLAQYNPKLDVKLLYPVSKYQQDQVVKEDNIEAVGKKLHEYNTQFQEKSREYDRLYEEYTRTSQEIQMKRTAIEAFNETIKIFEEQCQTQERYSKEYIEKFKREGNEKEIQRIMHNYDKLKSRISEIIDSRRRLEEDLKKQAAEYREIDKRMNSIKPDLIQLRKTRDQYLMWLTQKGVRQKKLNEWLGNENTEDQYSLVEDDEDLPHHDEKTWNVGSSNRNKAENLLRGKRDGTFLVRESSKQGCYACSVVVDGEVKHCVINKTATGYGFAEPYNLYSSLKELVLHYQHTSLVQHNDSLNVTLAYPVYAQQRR
Chain of recombinant human PI3Kδ (6-His(p110-p85α)) (O00329 whole entry): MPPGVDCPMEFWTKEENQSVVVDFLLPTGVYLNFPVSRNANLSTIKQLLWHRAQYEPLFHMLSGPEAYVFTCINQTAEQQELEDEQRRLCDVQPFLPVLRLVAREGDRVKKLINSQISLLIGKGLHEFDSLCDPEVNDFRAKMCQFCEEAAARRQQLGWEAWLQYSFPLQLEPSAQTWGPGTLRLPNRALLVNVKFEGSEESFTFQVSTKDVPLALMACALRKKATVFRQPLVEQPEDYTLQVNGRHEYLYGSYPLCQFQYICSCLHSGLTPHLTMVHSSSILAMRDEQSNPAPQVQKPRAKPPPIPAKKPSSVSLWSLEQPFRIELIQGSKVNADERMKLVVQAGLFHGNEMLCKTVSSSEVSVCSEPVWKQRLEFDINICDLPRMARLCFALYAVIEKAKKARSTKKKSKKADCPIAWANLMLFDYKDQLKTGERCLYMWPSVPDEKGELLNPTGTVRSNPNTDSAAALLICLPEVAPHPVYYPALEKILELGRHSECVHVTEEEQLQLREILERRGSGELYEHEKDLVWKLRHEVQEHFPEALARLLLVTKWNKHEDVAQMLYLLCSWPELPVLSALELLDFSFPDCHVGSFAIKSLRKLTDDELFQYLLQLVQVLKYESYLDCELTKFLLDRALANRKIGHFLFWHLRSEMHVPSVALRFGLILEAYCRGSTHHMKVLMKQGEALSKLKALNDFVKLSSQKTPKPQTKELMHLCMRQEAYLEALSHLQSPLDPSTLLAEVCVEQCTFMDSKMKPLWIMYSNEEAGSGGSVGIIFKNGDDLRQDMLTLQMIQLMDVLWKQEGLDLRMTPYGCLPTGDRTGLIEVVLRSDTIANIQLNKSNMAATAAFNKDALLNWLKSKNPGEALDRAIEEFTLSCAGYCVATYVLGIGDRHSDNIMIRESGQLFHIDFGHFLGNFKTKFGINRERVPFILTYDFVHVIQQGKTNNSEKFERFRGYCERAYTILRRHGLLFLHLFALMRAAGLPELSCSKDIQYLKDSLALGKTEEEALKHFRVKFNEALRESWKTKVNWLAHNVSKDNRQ
Chain of recombinant human PI3Kδ (6-His(p110-p85α)) (P27986 whole entry partner): as the sequence (P27986 whole entry partner) above
Chain of recombinant human PI3Kα (6-His(p110-p85α)) (P42336 whole entry): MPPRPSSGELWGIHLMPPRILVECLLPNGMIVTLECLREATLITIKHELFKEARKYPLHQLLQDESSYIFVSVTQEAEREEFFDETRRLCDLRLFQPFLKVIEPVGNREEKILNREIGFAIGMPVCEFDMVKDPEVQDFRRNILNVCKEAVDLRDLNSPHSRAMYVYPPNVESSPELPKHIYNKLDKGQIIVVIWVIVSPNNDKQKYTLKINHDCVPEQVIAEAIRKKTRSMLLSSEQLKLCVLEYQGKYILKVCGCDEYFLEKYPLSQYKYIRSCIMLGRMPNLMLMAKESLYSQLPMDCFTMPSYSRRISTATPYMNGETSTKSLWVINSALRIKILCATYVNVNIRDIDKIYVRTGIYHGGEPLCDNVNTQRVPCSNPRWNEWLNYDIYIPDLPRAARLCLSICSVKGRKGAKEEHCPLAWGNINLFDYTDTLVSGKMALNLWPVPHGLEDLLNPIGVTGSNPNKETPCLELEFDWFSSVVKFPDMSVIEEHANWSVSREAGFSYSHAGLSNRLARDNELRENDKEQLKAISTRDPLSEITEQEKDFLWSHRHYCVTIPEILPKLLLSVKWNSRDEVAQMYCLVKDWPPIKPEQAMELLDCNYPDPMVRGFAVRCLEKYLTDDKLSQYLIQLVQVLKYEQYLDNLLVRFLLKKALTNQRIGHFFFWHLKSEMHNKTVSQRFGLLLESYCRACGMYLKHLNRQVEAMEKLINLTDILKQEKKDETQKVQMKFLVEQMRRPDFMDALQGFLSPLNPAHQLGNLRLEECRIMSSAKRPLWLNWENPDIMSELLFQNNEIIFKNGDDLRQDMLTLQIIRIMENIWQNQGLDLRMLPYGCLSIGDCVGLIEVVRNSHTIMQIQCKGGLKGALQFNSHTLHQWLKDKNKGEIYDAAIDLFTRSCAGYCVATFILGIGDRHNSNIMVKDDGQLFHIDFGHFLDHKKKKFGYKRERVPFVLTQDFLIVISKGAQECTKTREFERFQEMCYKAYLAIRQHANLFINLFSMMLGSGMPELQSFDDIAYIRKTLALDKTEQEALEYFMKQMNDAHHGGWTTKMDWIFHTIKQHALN
Chain of recombinant human PI3Kα (6-His(p110-p85α)) (P27986 whole entry partner): as the sequence (P27986 whole entry partner) above

| SMILES | IC50 [1] [nM] | IC50 [2] [nM] | IC50 [3] [nM] | IC50 [4] [nM] |
| --- | --- | --- | --- | --- |
| Cc1nc(Nc2cccc(N3CCCC3=O)n2)sc1-c1cc2c(c(S(C)(=O)=O)c1)C(=O)N([C@@H](C)C1CC1)C2 [Example 1, 2-[(1S)-1-Cyclopropylethyl]-5-(4-methyl-2-{[6-(2-oxopyrrolidin-1-yl)pyridin-2-yl]amino}-1,3-thiazol-5-yl)-7-(methylsulfonyl)-2,3-dihydro-1H-isoindol-1-one] | 0.7 | 0.9 | 55 | 1360 |
| CC(=O)Nc1cccc(Nc2nc(C)c(-c3cc4c(c(S(C)(=O)=O)c3)C(=O)N([C@@H](C)C3CC3)C4)s2)n1 [Example 2, N-{6-[(5-{2-[(1S)-1-Cyclopropylethyl]-7-(methylsulfonyl)-1-oxo-2,3-dihydro-1H-isoindol-5-yl}-4-methyl-1,3-thiazol-2-yl)amino]pyridin-2-yl}acetamide] | 19.6 | 0.9 | 263 | 3730 |
| CC(=O)N(C)c1cccc(Nc2nc(C)c(-c3cc4c(c(S(C)(=O)=O)c3)C(=O)N([C@@H](C)C3CC3)C4)s2)n1 [Example 3, N-{6-[(5-{2-[(1S)-1-Cyclopropylethyl]-7-(methylsulfonyl)-1-oxo-2,3-dihydro-1H-isoindol-5-yl}-4-methyl-1,3-thiazol-2-yl)amino]pyridin-2-yl}-N-methylacetamide] | 1.4 | 0.8 | 127 | 1180 |
| Cc1nc(Nc2cccc(N3CCCCC3=O)n2)sc1-c1cc2c(c(S(C)(=O)=O)c1)C(=O)N([C@@H](C)C1CC1)C2 [Example 4, 2-[(1S)-1-Cyclopropylethyl]-5-(4-methyl-2-{[6-(2-oxopiperidin-1-yl)pyridin-2-yl]amino}-1,3-thiazol-5-yl)-7-(methylsulfonyl)-2,3-dihydro-1H-isoindol-1-one] |  | 1 | 16 | 250 |
| Cc1nc(Nc2cccc(N3CCN(C)C3=O)n2)sc1-c1cc2c(c(S(C)(=O)=O)c1)C(=O)N([C@@H](C)C1CC1)C2 [Example 5, 2-[(1S)-1-Cyclopropylethyl]-5-(4-methyl-2-{[6-(3-methyl-2-oxoimidazolidin-1-yl)pyridin-2-yl]amino}-1,3-thiazol-5-yl)-7-(methylsulfonyl)-2,3-dihydro-1H-isoindol-1-one] | 0.7 | 1.2 | 38 | 4710 |
| Cc1nc(Nc2cccc(N3CCNC3=O)n2)sc1-c1cc2c(c(S(C)(=O)=O)c1)C(=O)N([C@@H](C)C1CC1)C2 [Example 6, 2-[(1S)-1-Cyclopropylethyl]-5-(4-methyl-2-{[6-(2-oxoimidazolidin-1-yl)pyridin-2-yl]amino}-1,3-thiazol-5-yl)-7-(methylsulfonyl)-2,3-dihydro-1H-isoindol-1-one] | 0.7 | 0.8 | 23 | 219 |
| Cc1nc(Nc2cccc(N3CCOCC3=O)n2)sc1-c1cc2c(c(S(C)(=O)=O)c1)C(=O)N([C@@H](C)C1CC1)C2 [Example 7, 2-[(1S)-1-Cyclopropylethyl]-5-(4-methyl-2-{[6-(3-oxomorpholin-4-yl)pyridin-2-yl]amino}-1,3-thiazol-5-yl)-7-(methylsulfonyl)-2,3-dihydro-1H-isoindol-1-one] |  | 0.9 | 57 | 688 |
| Cc1nc(Nc2cccc(N3CCCOC3=O)n2)sc1-c1cc2c(c(S(C)(=O)=O)c1)C(=O)N([C@@H](C)C1CC1)C2 [Example 8, 2-[(1S)-1-Cyclopropylethyl]-5-(4-methyl-2-{[6-(2-oxo-1,3-oxazinan-3-yl)pyridin-2-yl]amino}-1,3-thiazol-5-yl)-7-(methylsulfonyl)-2,3-dihydro-1H-isoindol-1-one] | 1.2 | 1.3 | 23 | 324 |
| Cc1nc(Nc2cccc(N3Cc4ncccc4C3=O)n2)sc1-c1cc2c(c(S(C)(=O)=O)c1)C(=O)N([C@@H](C)C1CC1)C2 [Example 9, 6-{6-[(5-{2-[(1S)-1-Cyclopropylethyl]-7-(methylsulfonyl)-1-oxo-2,3-dihydro-1H-isoindol-5-yl}-4-methyl-1,3-thiazol-2-yl)amino]pyridin-2-yl}-6,7-dihydro-5H-pyrrolo[3,4-b]pyridin-5-one] | 2.7 | 1 | 11400 | 33300 |

Results, then the compound that gave them:

| IC50 [1] [nM] | IC50 [2] [nM] | IC50 [3] [nM] | IC50 [4] [nM] | SMILES |
| --- | --- | --- | --- | --- |
|  | 0.9 | 78 | 575 | Cc1nc(Nc2cccc(N3CCCC3=O)n2)sc1-c1cc2c(c(S(C)(=O)=O)c1)C(=O)N([C@@H](C)C(F)(F)F)C2 [Example 10, 5-(4-Methyl-2-{[6-(2-oxopyrrolidin-1-yl)pyridin-2-yl]amino}-1,3-thiazol-5-yl)-7-(methylsulfonyl)-2-[(2S)-1,1,1-trifluoropropan-2-yl]-2,3-dihydro-1H-isoindol-1-one] |
| 1.2 | 0.8 | 54 | 291 | Cc1nc(Nc2cccc(N3CCNC3=O)n2)sc1-c1cc2c(c(S(C)(=O)=O)c1)C(=O)N([C@@H](C)C(F)(F)F)C2 [Example 11, 5-(4-Methyl-2-{[6-(2-oxoimidazolidin-1-yl)pyridin-2-yl]amino}-1,3-thiazol-5-yl)-7-(methylsulfonyl)-2-[(2S)-1,1,1-trifluoropropan-2-yl]-2,3-dihydro-1H-isoindol-1-one] |
| 1.6 | 0.9 | 300 | 4100 | Cc1nc(Nc2cccc(N3CCOC3=O)n2)sc1-c1cc2c(c(S(C)(=O)=O)c1)C(=O)N([C@@H](C)C(F)(F)F)C2 [Example 12, 5-(4-Methyl-2-{[6-(2-oxo-1,3-oxazolidin-3-yl)pyridin-2-yl]amino}-1,3-thiazol-5-yl)-7-(methylsulfonyl)-2-[(2S)-1,1,1-trifluoropropan-2-yl]-2,3-dihydro-1H-isoindol-1-one] |
| 1.1 | 0.8 | 68 | 1570 | CNS(=O)(=O)c1cc(-c2sc(Nc3cccc(N(C)C(C)=O)n3)nc2C)cc2c1C(=O)N([C@@H](C)C1CC1)C2 [Example 13, N-{6-[(5-{2-[(1S)-1-Cyclopropylethyl]-7-(methylsulfamoyl)-1-oxo-2,3-dihydro-1H-isoindol-5-yl}-4-methyl-1,3-thiazol-2-yl)amino]pyridin-2-yl}-N-methylacetamide] |
|  |  | 18 | 168 | CNS(=O)(=O)c1cc(-c2sc(Nc3cccc(N4CCCCC4=O)n3)nc2C)cc2c1C(=O)N([C@@H](C)C1CC1)C2 [Example 19, 2-[(1S)-1-Cyclopropylethyl]-N-methyl-6-(4-methyl-2-{[6-(2-oxopiperidin-1-yl)pyridin-2-yl]amino}-1,3-thiazol-5-yl)-3-oxo-2,3-dihydro-1H-isoindole-4-sulfonamide] |
|  | 0.8 | 85 | 596 | Cc1nc(Nc2cccc(N3CCOCC3=O)n2)sc1-c1cc2c(c(S(=O)(=O)NC3COC3)c1)C(=O)N([C@@H](C)C1CC1)C2 [Example 31, 2-[(1S)-1-Cyclopropylethyl]-6-(4-methyl-2-{[6-(3-oxomorpholin-4-yl)pyridin-2-yl]amino}-1,3-thiazol-5-yl)-N-(oxetan-3-yl)-3-oxo-2,3-dihydro-1H-isoindole-4-sulfonamide] |
| 18.9 | 22.5 |  |  | CNS(=O)(=O)c1cc(-c2sc(Nc3cccc(N4CCCNCC4=O)n3)nc2C)cc2c1C(=O)N([C@@H](C)C1CC1)C2 [Example 52, 2-[(1S)-1-Cyclopropylethyl]-N-methyl-6-(4-methyl-2-{[6-(2-oxo-1,4-diazepan-1-yl)pyridin-2-yl]amino}-1,3-thiazol-5-yl)-3-oxo-2,3-dihydro-1H-isoindole-4-sulfonamide] |
